The results in this text go back to patent US20120165206A1, “Method and Assay for Glycosylation Pattern Detection Related to Cell State” (priority 2006, published 2012).

In one experiment the test system is PC12 cells. The experiment in a line: Lectin array glycoanalysis (Qproteome Glycoprofiling Kit) of membrane proteins of PC12 cells treated with BFA. It is filed as cell-based. The following applies: 12 ug/ml BFA, 24 h. The protocol: (§1) Lectins with differing, well-characterized glycan-binding specificities are spotted on the surface of an array. The array is probed with a biotinylated membrane glycoprotein mixture and washed to reduce background. Bound biotinylated glycoproteins are visualized with Cy®3-labeled streptavidin using a microarray scanner. Following scanning, the resulting images are analyzed using Qiagen GlycoAnalyzer Software.
(§2) Each lectin is printed on the slides at seven concentrations. The analysis provides a lectin fingerprint for each sample: a histogram in which each bar represents the slope of the dose-response curve observed for each lectin. […] All fingerprints in an experiment are preferably normalized to the fingerprint of the reference sample. Microarray technologies generally require normalization between slides to adjust for variations that arise from technology, rather than from biological differences. The normalization in Qproteome Glycoprofiling Kits is preferably based on a robust-regression algorithm (using MM-estimators; please see Example 9 for a description).
Materials and Methods: PC12 cells were treated with 12 ug/ml BFA for 24 h. […] Cells were then harvested and analyzed with the Qproteome Glycoprofiling Kit (Qiagen USA; the assay was performed as described in the kit manual according to manufacturer's instructions).

The subject of another experiment is 3T3L1 cells. Briefly: Lectin array glycoanalysis (Qproteome Glycoprofiling Kit) of membrane proteins of 3T3L1 cells treated with DMJ. The following applies: pre-confluent 3T3L1 cells, 800 ug/ml DMJ, 3 days, FIG. 4. The class given is cell-based, mouse. The protocol:
as §1, §2
Materials and Methods: Pre-confluent 3T3L1 cells were incubated for 3 days in the presence or absence of 800 ug/ml DMJ. Cells were then harvested and analyzed with the Qproteome Glycoprofiling Kit (Qiagen USA; the assay was performed as described in the kit manual according to manufacturer's instructions).

Each structure is given as a SMILES string.

Turning to `C[C@H]1CCC/C=C/[C@@H]2C[C@H](O)C[C@H]2[C@H](O)/C=C/C(=O)O1` [BFA, Brefeldin A], the “cell morphology / attachment” value with PC12 cells is “morphological changes were observed and cells were detached”. Moreover, in the experiment on PC12 cells (FIG. 3), the “antennarity of the membrane glycoproteins (lectin that binds N-linked complex antennary structures)” value was “significant decrease”; the “signals from lectins recognizing terminal sugars such as alpha-galactose, beta-galactose, sialic acid and fucose” value is on record as “Decreases”.
Consider `OC[C@H]1NC[C@@H](O)[C@@H](O)[C@@H]1O` [DMJ, 1-deoxymannojirimycin], for which, in the experiment with 3T3L1 cells (vs non-treated cells), the “antennarity (lectins that bind N-linked complex antennary structures)” value is reported as “strongly reduced” and the “signals from all oligomannose binding lectins (high mannose glycans)” value was “significantly increased”. In addition, the “sugars found on antennae termini such as beta galactose and sialic acid” value in the experiment on 3T3L1 cells is reported as “decrease”.
